*1 amine or outer side, *2 acyl side, *3 side chain or, on linkers, in order; H or OH if unused. Where a SMILES comes first, the peptide text is derived from it. Bridges are numbered along the chain shown (N, C = ends). Side-chain parts run from the residue outwards. [ ]: non-standard residue; d: D form. The star is where a group is joined. Me3N+(CH2)2O(CH2)2O(CH2)2CO = C[N+](C)(C)CCOCCOCCC(=O)*; Trp(7-Me) = Cc1cccc2c(C[C@H](N)C(=O)O)c[nH]c12; C18 diacid = O=C(O)CCCCCCCCCCCCCCCCC(=O)*; γGlu = O=C(O)[C@H](CCC(=O)[*:2])N[*:1]; 2Nal = N[C@@H](Cc1ccc2ccccc2c1)C(=O)O; 3Pal = N[C@@H](Cc1cccnc1)C(=O)O; Lys(Me) = CNCCCC[C@H](N)C(=O)O; Pen = CC(C)(S)[C@H](N)C(=O)O; X1 = C[N+](C)(C)CCCCC*; AEEA = NCCOCCOCC(=O)O; Sar = CNCC(=O)O
Legend:
[1] = test system: IL-23-stimulated phosphorylated STAT3 in peripheral blood mononuclear cells (PBMCs); assay: PBMC pSTAT3 Assay; type: cell-based; details: PBMCs from healthy donors; 30 min preincubation with peptide; IL-23 5 ng/mL for 30 min; phospho-STAT3 by MSD
Method in brief: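 Healthy-donor PBMCs expanded 4 days on anti-CD3 with 100 ng/mL IL-1β, starved ~4 h in RPMI-0.1% BSA, preincubated 30 min with peptide, then stimulated 30 min at 37 °C with 5 ng/mL IL-23. Lysate pSTAT3 measured by MSD phospho-STAT panel; IC50 derived.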

IL-23R = target: T1, IL-23R (Homo sapiens, UniProt Q5VWK5); assay: IL23R Reporter Assay; type: cell-based; details: HEK293 cells containing IL-23R, IL-12Rβ1 and STAT-inducible firefly luciferase reporter; 10 ng/mL IL-23 (EC90); 5 h
T1 construct: HEK293 cells containing IL-23R, IL-12Rβ1 and a firefly luciferase reporter gene driven by a STAT-inducible promoter (Promega); host or cells: HEK293
T1 sequence (Q5VWK5 24-629): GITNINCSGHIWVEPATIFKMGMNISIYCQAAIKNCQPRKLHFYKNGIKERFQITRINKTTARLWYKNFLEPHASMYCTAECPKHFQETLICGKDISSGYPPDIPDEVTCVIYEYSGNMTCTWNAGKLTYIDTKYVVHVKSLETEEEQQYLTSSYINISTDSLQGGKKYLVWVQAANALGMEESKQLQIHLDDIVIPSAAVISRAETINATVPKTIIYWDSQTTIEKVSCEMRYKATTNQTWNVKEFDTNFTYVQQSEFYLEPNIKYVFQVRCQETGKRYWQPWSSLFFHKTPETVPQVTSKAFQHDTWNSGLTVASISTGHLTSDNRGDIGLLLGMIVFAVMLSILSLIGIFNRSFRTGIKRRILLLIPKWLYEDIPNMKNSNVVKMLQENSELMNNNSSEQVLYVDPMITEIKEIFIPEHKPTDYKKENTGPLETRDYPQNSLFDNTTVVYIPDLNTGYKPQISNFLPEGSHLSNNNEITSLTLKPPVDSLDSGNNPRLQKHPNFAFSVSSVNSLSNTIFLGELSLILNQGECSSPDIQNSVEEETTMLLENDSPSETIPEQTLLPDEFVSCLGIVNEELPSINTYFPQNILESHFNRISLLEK
Method in brief: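 HEK293 cells carrying IL-23R, IL-12Rβ1 and a STAT-driven firefly luciferase reporter (4000 cells/well) received compound, then 10 ng/mL IL-23 solution (EC90), and were incubated for 5 h at 37° C. BioGlo luminescence was normalised to IL-23 alone (0%) and 30 μM control inhibitor (100%). IC50 came from a 4-parameter Hill fit.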

## CC(=O)NCCCC[C@@H]1NC(=O)[C@H](Cc2c[nH]c3c(C)cccc23)NC(=O)[C@H]([C@@H](C)O)NC(=O)[C@H](CC(N)=O)NC(=O)[C@@H](NC(=O)COCCOCCNC(=O)COCCOCCNC(=O)CC[C@H](NC(=O)CCCCCCCCCCCCCCCCC(=O)O)C(=O)O)C(C)(C)SSC(C)(C)[C@@H](C(=O)N[C@@H](Cc2ccc(OCCN)cc2)C(=O)N[C@@H](Cc2ccc3ccccc3c2)C(=O)NC2(C(=O)N[C@@H](CCC(=O)O)C(=O)N[C@@H](CC(N)=O)C(=O)N[C@@H](Cc3cccnc3)C(=O)N(C)CC(N)=O)CCOCC2)NC1=O [compound 61, HOC18gEPEG2PEG2CO-Pen(3)-N-T-7MeW-K(Ac)-Pen(3)-AEF-2Nal-THP-E-N-3Pya-Sar-CONH2]
[1]
  IC50: < 0.5 nM
IL-23R
  IC50: < 50 nM

## CC(=O)N(C)CCCC[C@@H]1NC(=O)[C@H](CC2=CCc3c(C)cccc32)NC(=O)[C@H]([C@@H](C)O)NC(=O)[C@H](CC(=O)N(C)C)NC(=O)[C@@H](NC(=O)CCOCCOCC[N+](C)(C)C)C(C)(C)SSC(C)(C)C(CN[C@@H](Cc2ccc(OCCNC(=O)C[N+](C)(C)CCNC(=O)CCOCCOCCOCCOCCOCCOCCNC(=O)CC[C@H](CC(=O)CCCCCCCCCCCCCCCCCCC(=O)O)C(=O)O)cc2)C(=O)N[C@@H](Cc2ccc3ccccc3c2)C(=O)NC2(C(=O)N[C@@H](CCCCN(C)C(C)=O)C(=O)N[C@@H](CC(N)=O)C(=O)N[C@@H](Cc3cccnc3)C(C)N(C)CC(=O)N(C)C)CCOCC2)NC1=O (stereo partly drawn) [compound 140, cPEG3aCO-Pen(3)-N(N(Me)2)-T-7MeW-K(NMeAc)-Pen(3)-AEF(SP6PEG6gEC20OH)-2Nal-THP-K(NMeAc)-N-3Pya-Sar-CON(Me)2]
[1]
  IC50: < 0.5 nM
IL-23R
  IC50: 50 to 500 nM

## CC(=O)N(C)CCCC[C@H](NC(=O)CNC(=O)[C@H](Cc1ccc2ccccc2c1)NC(=O)[C@H](Cc1ccc(OCCCCC[N+](C)(C)C)cc1)NC(=O)[C@H]1NC(=O)[C@H](CCCCNC(=O)COCCOCCNC(=O)COCCOCCNC(=O)CC[C@H](NC(=O)CCCCCCCCCCCCCCCCC(=O)O)C(=O)O)NC(=O)[C@H](Cc2c[nH]c3c(C)cccc23)NC(=O)[C@H]([C@@H](C)O)NC(=O)[C@H](CC(=O)N(C)C)NC(=O)[C@@H](NC(=O)CCOCCOCC[N+](C)(C)C)C(C)(C)SSC1(C)C)C(=O)N[C@@H](CC(N)=O)C(=O)N[C@@H](Cc1cccnc1)C(=O)N(C)CC(=O)N(C)C [compound 157, cPEG3aCO-Pen(3)-N(N(Me)2)-T-7MeW-K(PEG2PEG2gEC18OH)-Pen(3)-APEG3F-2Nal-THP-K(NMeAc)-N-3Pya-Sar-CON(Me)2] ({Me3N+(CH2)2O(CH2)2O(CH2)2CO}-[Pen]D(NMe2)T[Trp(7-Me)]K([AEEA-AEEA-γGlu-C18 diacid])[Pen]Y(X1)[2Nal]G[Lys(Me)](Ac)N[3Pal][Sar]-NMe2; disulfide 1-6)
[1]
  IC50: 0.5 to 5 nM
IL-23R
  IC50: 50 to 500 nM

## CC(=O)NCCCC[C@@H]1NC(=O)[C@H](Cc2c[nH]c3c(C)cccc23)NC(=O)[C@H]([C@@H](C)O)NC(=O)[C@H](CC(N)=O)NC(=O)[C@@H](NC(=O)O)CCCC[C@@H](C(=O)N[C@@H](Cc2ccc(OCCN)cc2)C(=O)N[C@@H](Cc2ccc3ccccc3c2)C(=O)NC2(C(=O)N[C@@H](CCC(=O)O)C(=O)N[C@@H](CC(N)=O)C(=O)N[C@@H](Cc3cccnc3)C(=O)N(C)CC(=O)C[C@@H](CCCCNC(=O)COCCOCCNC(=O)COCCOCCNC(=O)CC[C@H](NC(=O)CCCCCCCCCCCCCCCC(=O)O)C(=O)O)C(=O)NCCOCCOCC[N+](C)(C)C)CCOCC2)NC1=O [compound 150, MeCO-Pen(3)-N-T-7MeW-K(Ac)-Pen(3)-AEF-2Nal-THP-E-N-3Pya-Sar-K(PEG2PEG2gEC18OH)-CONH(PEG3a)]
[1]
  IC50: ≥ 5 nM
IL-23R
  IC50: ≥ 500 nM

Source: patent US20260250320A1, “LIPIDATED PEPTIDE INHIBITORS OF INTERLEUKIN-23 RECEPTOR” (Janssen Pharmaceutica NV, priority 2023, published 2026)
